pIC50: −log10 of the molar value.
What was measured:
human PDHK1 (hPDHK1) = human PDHK1 (hPDHK1) (Homo sapiens (Human), UniProt Q15118); assay: Inhibitory action of PDHK1 activity in vitro (residual PDH activity after PDHK reaction); type: biochemical; conditions: for pIC50: PDH/hPDHK1 complex solution, PDHK reaction at room temperature for 45 min, NADH absorbance at 340 nm, read-out: hPDK1 IC50; for inhibition at 0.003 µM: at 3 nmol/L, shown when IC50 value could not be calculated, read-out: hPDHK1 inhibitory rate at the lowest concentration of the test compound
Procedure, shortened: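 N-FLAG hPDHK1 (E. coli-expressed, 0.5 μg/mL) precomplexed overnight at 4 °C with porcine heart PDH (0.025 U/mL), then reacted 45 min at room temperature with compound and ATP (0.353 μmol/L as added) in MOPS pH 7.0 buffer. Residual PDH activity after 90 min with pyruvate, CoA, NAD, TPP read as NADH at 340 nm.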

human PDHK2 (hPDHK2) = human PDHK2 (hPDHK2) (Homo sapiens (Human), UniProt Q15119); assay: Inhibitory action of PDHK2 activity in vitro (residual PDH activity after PDHK reaction); type: biochemical; conditions: PDH/hPDHK2 complex solution, PDHK reaction at room temperature for 45 min, NADH absorbance at 340 nm; read-out: kPDK2 IC50
Procedure, shortened: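 Indirect assay: FLAG-tagged hPDHK2 (0.5 μg/mL) precomplexed overnight at 4 °C with PDH (0.025 U/mL), then kinase reaction with compound and ATP 45 min at room temperature, pH 7.0 MOPS buffer. Residual PDH activity measured after 90 min with pyruvate, CoA, NAD, TPP as NADH absorbance at 340 nm, corrected for compound effect on PDH-only blank.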

Chain of human PDHK1 (hPDHK1) (Q15118 29-436): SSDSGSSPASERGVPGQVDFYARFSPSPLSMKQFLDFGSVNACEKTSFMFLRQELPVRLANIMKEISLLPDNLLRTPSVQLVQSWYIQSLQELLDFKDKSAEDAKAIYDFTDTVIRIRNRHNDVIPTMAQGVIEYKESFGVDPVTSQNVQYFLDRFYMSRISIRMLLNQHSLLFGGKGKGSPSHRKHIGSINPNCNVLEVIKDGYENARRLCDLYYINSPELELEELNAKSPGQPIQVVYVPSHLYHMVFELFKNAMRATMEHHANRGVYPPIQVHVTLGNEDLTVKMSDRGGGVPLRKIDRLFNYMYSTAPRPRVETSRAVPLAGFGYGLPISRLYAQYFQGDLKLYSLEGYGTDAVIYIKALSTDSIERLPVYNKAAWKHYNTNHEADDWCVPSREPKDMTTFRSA

Structure (SMILES): C[C@H]1CN(C(=O)c2c3ccc(C#N)cc3nn2C)Cc2cnc([C@@](C)(O)C(F)(F)F)n21 [Example 4, 2-methyl-3-((S)-5-methyl-3-((R)-1,1,1-trifluoro-2-hydroxypropan-2-yl)-5,6,7,8-tetrahydroimidazo[1,5-a]pyrazine-7-carbonyl)-2H-indazole-6-carbonitrile]
- pIC50 (human PDHK1 (hPDHK1)): 8.40
- pIC50 (human PDHK2 (hPDHK2)): 8.30

Structure (SMILES): C[C@H]1CN(C(=O)c2cn(C)nc2C2CC2)Cc2onc([C@@](C)(O)C(F)(F)F)c21 [Example 121]
- pIC50 (human PDHK1 (hPDHK1)): 8.30
- pIC50 (human PDHK2 (hPDHK2)): 8.30

Structure (SMILES): C[C@H]1CN(C(=O)c2cc(-c3ccc(F)cc3C#N)nn2C)Cc2cnc([C@@](C)(O)C(F)(F)F)n21 [Example 61]
- pIC50 (human PDHK1 (hPDHK1)): 8.52
- pIC50 (human PDHK2 (hPDHK2)): 8.30

Structure (SMILES): C[C@H]1CN(C(=O)c2ccc(C3(O)CCC3)cc2)Cc2cnc([C@@](C)(O)C(F)(F)F)n21 [Example 51]
- pIC50 (human PDHK1 (hPDHK1)): 8.40
- pIC50 (human PDHK2 (hPDHK2)): 8.22

Structure (SMILES): C[C@H]1CN(C(=O)c2cc(-c3ccc(C#N)cc3)ncc2F)Cc2cnc([C@@](C)(O)C(F)(F)F)n21 [Example 68, 4-(5-fluoro-4-((S)-5-methyl-3-((R)-1,1,1-trifluoro-2-hydroxypropan-2-yl)-5,6,7,8-tetrahydroimidazo[1,5-a]pyrazine-7-carbonyl)pyridin-2-yl)benzonitrile]
- pIC50 (human PDHK1 (hPDHK1)): 8.40
- pIC50 (human PDHK2 (hPDHK2)): 8.22

Structure (SMILES): C[C@H]1CN(C(=O)c2cc(C3CC3)n[nH]2)Cc2onc([C@@](C)(O)C(F)(F)F)c21 [Example 111, (3-cyclopropyl-1H-pyrazol-5-yl)((R)-4-methyl-3-((R)-1,1,1-trifluoro-2-hydroxypropan-2-yl)-4,7-dihydroisoxazolo[5,4-c]pyridin-6(5H)-yl)methanone]
- pIC50 (human PDHK1 (hPDHK1)): 8.52
- pIC50 (human PDHK2 (hPDHK2)): 8.22

Structure (SMILES): C[C@H]1CN(C(=O)c2ccc(C#N)c(-n3cc(Cl)cn3)c2)Cc2cnc([C@@](C)(O)C(F)(F)F)n21 [Example 85]
- pIC50 (human PDHK1 (hPDHK1)): > 8.52
- inhibition at 0.003 µM (human PDHK1 (hPDHK1)): 49%
- pIC50 (human PDHK2 (hPDHK2)): 8.22

Structure (SMILES): C[C@H]1CN(C(=O)[C@H]2CCN(c3ccc(C#N)cn3)C2)Cc2cnc([C@@](C)(O)C(F)(F)F)n21 [Example 92]
- pIC50 (human PDHK1 (hPDHK1)): 7.57
- pIC50 (human PDHK2 (hPDHK2)): 7.64

Structure (SMILES): C[C@H]1CN(C(=O)c2cc(C3CC3)nn2C)Cc2nnc([C@@](C)(O)C(F)(F)F)n21 [Example 123]
- pIC50 (human PDHK1 (hPDHK1)): 8.22
- pIC50 (human PDHK2 (hPDHK2)): 7.92

Structure (SMILES): C[C@H]1CN(C(=O)c2ccnc(C3CC3)c2)Cc2cnc([C@@](C)(O)C(F)(F)F)n21 [Example 96]
- pIC50 (human PDHK1 (hPDHK1)): 8.10
- pIC50 (human PDHK2 (hPDHK2)): 8.10

Structure (SMILES): C[C@H]1CN(C(=O)c2ccc(F)c(C3CC3)n2)Cc2cnc([C@@](C)(O)C(F)(F)F)n21 [Example 23]
- pIC50 (human PDHK1 (hPDHK1)): 8.22
- pIC50 (human PDHK2 (hPDHK2)): 7.92

Structure (SMILES): C[C@H]1CN(C(=O)c2cccc(-c3ccc(C#N)cc3)n2)Cc2cnc([C@@](C)(O)C(F)(F)F)n21 [Example 43]
- pIC50 (human PDHK1 (hPDHK1)): > 8.52
- inhibition at 0.003 µM (human PDHK1 (hPDHK1)): 52%
- pIC50 (human PDHK2 (hPDHK2)): 8.30

Structure (SMILES): C[C@H]1CN(C(=O)c2ccc(F)c(-c3ccnn3C)c2)Cc2cnc([C@@](C)(O)C(F)(F)F)n21 [Example 64]
- pIC50 (human PDHK1 (hPDHK1)): 8.30
- pIC50 (human PDHK2 (hPDHK2)): 8.15

Structure (SMILES): C[C@H]1CN(C(=O)c2ccc3nn(C)cc3c2)Cc2cnc([C@@](C)(O)C(F)(F)F)n21 [Example 12]
- pIC50 (human PDHK1 (hPDHK1)): 8.10
- pIC50 (human PDHK2 (hPDHK2)): 8.00

Structure (SMILES): C[C@H]1CN(C(=O)c2cc(-c3ccc(F)cc3)ccn2)Cc2cnc([C@@](C)(O)C(F)(F)F)n21 [Example 55]
- pIC50 (human PDHK1 (hPDHK1)): > 8.52
- inhibition at 0.003 µM (human PDHK1 (hPDHK1)): 54%
- pIC50 (human PDHK2 (hPDHK2)): 8.40

Structure (SMILES): C[C@H]1CN(C(=O)c2ccc(F)c(-c3cncc(F)c3)c2)Cc2cnc([C@@](C)(O)C(F)(F)F)n21 [Example 83]
- pIC50 (human PDHK1 (hPDHK1)): 8.30
- pIC50 (human PDHK2 (hPDHK2)): 7.96
